Test results: PMC10883292, “Estrogen Receptor Mutations as Novel Targets for Immunotherapy in Metastatic Estrogen Receptor–positive Breast Cancer” (Cancer Research Communications, 2024)

Experiments:
HLA-A*0201 on T2 cells = molecular target: T1, HLA-A*0201 on T2 cells (Homo sapiens, UniProt P04439, D140Y/D185E/D98H/E176V/E277Q/G131W/G231S/I119V/I121R/I166T/I218V/L300P/L318F/N151K/N90K/P208A/P217A/Q86G/Q94H/R138H/R169H/T345S); test: T2 dissociation (stability) assay; format: cell-based; details: peptide:HLA-A*0201 dissociation; T2 cells pulsed 8–12 hours, washed; MFI normalized to time 0; linear regression; three independent experiments in triplicate
T1 construct: T2 cells were pulsed with indicated peptides for 8–12 hours, washed, and then stained for surface HLA-A*0201 expression; host or cells: T2 cells
Procedure: T2 binding assays were performed as described previously ([23]). […] Surface expression of HLA-A*0201 in T2 cells was determined by staining with an anti-HLA-A2 mAb (BB7.2, BD Biosciences). The median fluorescence intensity (MFI) was measured using a FACSCando II (BD Biosciences). The peptide half-life was calculated by linear regression using GraphPad Prism software.
FIGURE 2 Kinetics of peptide: HLA-A*0201 dissociation. T2 cells were pulsed with indicated peptides for 8–12 hours, washed, and then stained for surface HLA-A*0201 expression at indicated timepoints for wildtype-1 and E380Q (A), wildtype-2 and Y537S (B), wildtype-2 and D538G (C). MFI for each timepoint was normalized to initial staining (time = 0). Linear regression analysis was used to plot lines of best fit for each individual peptide, and half-life for each peptide is shown in Table 2. Data are pooled from three independent experiments performed in triplicate.

[1] = tested on: peptide-specific CD8+ T cells from PBMC of healthy female HLA-A2 positive donors; test: Peptide-specific CTL tetramer assay and expansion; format: cell-based, human; details: for tetramer expansion: post- vs pre-expansion, in words; for average frequency fold change (vs. pre-expansion): after CTL expansion with peptide-pulsed DCs, IL7, IL2; for average frequency fold change (vs. pre-expansion) / average frequency of peptide-specific CTLs in peripheral blood: tetramer staining; for average frequency of peptide-specific CTLs in peripheral blood: pre-expansion, PBMC of healthy females, 3 donors
Description: Healthy donor peripheral blood samples were purchased from the local blood bank and used under an MD Anderson Cancer Center Institutional Review Board–approved protocol. Because the samples came from deidentified healthy donors, the Institutional Review Board determined that informed consent was not required. Peripheral blood mononuclear cells (PBMC) were isolated from buffy coats of healthy female HLA-A2 positive donors by Ficoll/Histopaque (Sigma-Aldrich) density gradient centrifugation and split equally into two groups. One group of PBMC was used to assess the pre-expansion frequency of the peptide-specific CTLs. These cells were immediately stained with FITC-conjugated anti-CD3 and APC-H7–conjugated anti-CD8 to select for CD8^+ T cells. Pacific blue (PB)-conjugated anti-CD4, anti-CD14, anti-CD16, anti-CD19, and anti-CD56 (BD Biosciences) were used as a dump gate to gate out other immune cell types; PE-conjugated mutant peptide and APC-conjugated wild-type peptide tetramers (Baylor College of Medicine, MHC tetramer core, Houston, TX) were used to enumerate the percentage of peptide-specific CD8^+ T cells present in healthy PBMCs. The analysis was performed using flow cytometry.
The second group of donor PBMC was used to assess the expansion potential of the peptide-specific CTLs. To expand peptide-specific CTLs, dendritic cells (DC) were matured from adherent monocytes by the addition of GMCSF (100 ng/mL, Sanoti), IL4 (50 ng/mL, rhIL4, Tonbo Biosciences), and TNFα (25 ng/mL, BioLegend). Lymphocytes from the same donor were separated and cocultured with 40 µg/mL of mutant and wild-type peptides. After 5 days, DCs were harvested and cocultured with autologous CD8^+ T cells for an additional 7 days. The cocultured cells were supplemented with IL7 (10 ng/mL; BioLegend) for CTL activation and IL2 (25 ng/mL; R&D Systems) for CTL expansion. After CTL activation and expansion, cells were stained and analyzed as described above.
FIGURE 3 Peptide-specific expansion of CD8^+ T cells. PBMCs from healthy donors were isolated and expanded as described in the Materials and Methods. Tetramer staining was performed pre- and post-expansion to quantify frequencies of peptide-specific CD8^+ T cells. A, Wildtype-1, E380Q. B, Wildtype-2, Y537S, D538G. Data represents three independent experiments, from 3 separate donors, performed in triplicate. Statistical significance was determined via comparison of pre-expansion versus post-expansion CD8^+tetramer^+ population using unpaired Student t test. *, P < 0.05.

peptide-pulsed T2 cells = test: Calcein-AM release cytotoxicity assay, peptide-pulsed T2 cells; format: cell-based, human; details: 20:1 effector:target ratio, 4-hour calcein-AM release, T2 cells pulsed with corresponding peptide, peptide-specific CTLs from healthy female donors
Procedure: Healthy donor lymphocytes and DCs were cocultured in 6-well plates supplemented with IL7 and IL2, as described above. On days 12–14, cultured peptide-specific CTLs were harvested and peptide-specific cytotoxicity was assessed using a standard 4-hour Calcein-AM (Sigma-Aldrich) release assay as described previously ([24]). Briefly, target cells, including T2 cells pulsed with mutant and wild-type peptides, were labeled with 5 µg/mL calcein-AM for 15 minutes in the dark. After two washes, cells were adjusted to 2 × 10^5/mL, plated on a Terasaki plate, and cocultured with peptide-specific CTLs at effector:target ratios of 20:1 and 5:1. After 4 hours of incubation, Trypan blue was added to quench the reaction. The fluorescence was measured using a Cytation 3 Imaging Reader (BioTek). The percentage of specific cell lysis was calculated using the following formula: […]
T2 cells were pulsed with corresponding peptides and labeled with calcein-AM. Cytotoxicity was determined by a standard calcein-AM release assay. Wildtype-1 (A), E380Q (B), Wildtype-2 (C), Y537S (D), D538G (E). Non-pulsed T2 cells were used as negative controls. Statistical significance was determined via unpaired Student t test. Data represent the average of three to four experiments from separate healthy female donors run in triplicate. *, P < 0.05; ***, P < 0.001.

Row | Half-Life (HLA-A*0201 on T2 cells) [h] | Sequence | tetramer expansion [1] | specific cytotoxicity (peptide-pulsed T2 cells) [%] | average frequency fold change (vs. pre-expansion) [1] [fold] | average frequency of peptide-specific CTLs in peripheral blood [1] [%]
1 | 6.2 | PLSDLLLEM [Y537S, ESR1-derived nonameric peptide with Y537S mutation] | – | 30.03 | 4.85 | 0.18
2 | 5.9 | PLYDLLLEM [Wildtype-2, wild-type ESR1-derived nonameric peptide associated with Y537S and D538G] | modest expansion | 13.27 | – | –

Second part, the sequence before the results:

Row | Sequence | Half-Life (HLA-A*0201 on T2 cells) [h] | tetramer expansion [1] | specific cytotoxicity (peptide-pulsed T2 cells) [%] | average frequency fold change (vs. pre-expansion) [1] [fold] | average frequency of peptide-specific CTLs in peripheral blood [1] [%]
3 | LLECAWLEI [Wildtype-1, wild-type ESR1-derived nonameric peptide associated with E380Q] | 5.4 | did not show tetramer expansion | 25.99 | – | –
4 | LLQCAWLEI [E380Q, ESR1-derived nonameric peptide with E380Q mutation] | 7.2 | – | 28.45 | 5.77 | 0.03
5 | PLYGLLLEM [D538G, ESR1-derived nonameric peptide with D538G mutation] | 6.0 | – | 30.48 | 4.31 | 0.17
